{
  "source": "BindingDB's records for doi:10.1021/np030086k",
  "about": "(University of Mississippi, 2003)",
  "note": "pIC50: −log10 of the molar value.",
  "data": [
    {"assay": "Inhibition of LFA1:CD11a/CD18/ICAM1-mediated human HL60 cell adhesion to human HeLa cells expressing ICAM1 by fluorescence analysis", "values": [
      {"smiles": "CC[C@H]1CN2CCc3cc(OC)c(OC)cc3[C@@H]2C[C@@H]1C[C@H]1NCCc2cc(OC)c(OC)cc21", "note": "[6',7',10,11-tetramethoxyemetan]", "pIC50": "< 3.98"},
      {"smiles": "C=C1[C@@H](C)[C@H]2[C@H](Cc3ccccc3)NC(=O)[C@]23OC(=O)/C=C/[C@H](O)CCC[C@@H](C)C/C=C/[C@H]3[C@@H]1O", "note": "[CHEBI:23527]", "pIC50": 4.94},
      {"smiles": "CC[C@H]1CN2CCc3cc(OC)c(OC)cc3[C@@H]2C[C@@H]1C[C@H]1NCCc2cc(O)c(OC)cc21", "note": "[CHEBI:3533]", "pIC50": "< 4.67"}
    ]}
  ]
}
